Measurements: patent publication US20100021918A1, “METHOD FOR ASSAYING ACTION OF ANTITUMOR AGENT USING SPLICING DEFECTS AS INDEX” (Eisai R&D Management Co., Ltd., priority 2007, published 2010)

System: SMN
Assay: Western blotting of abnormal protein from pre-mRNA, SMN
Type: cell-based, human
Settings: HeLa cells, 10 nM and 100 nM, 24 hours; untreated: only a 35 kDa band (FIG. 4)
Excerpt: Consequently the protein may serves as a protein marker to monitor the action of (8E,12E,14E)-7-((4-cycloheptylpiperazin-1-yl)carbonyl)oxy-3,6,16,21-tetrahydroxy-6,10,12,16,20-pentamethyl-18,19-epoxytricosa-8,12,14-trien-11-olide. Whether the pre-mRNA-dependent abnormal protein practically emerged upon the treatment of (8E,12E,14E)-7-((4-cycloheptylpiperazin-1-yl)carbonyl)oxy-3,6,16,21-tetrahydroxy-6,10,12,16,20-pentamethyl-18,19-epoxytricosa-8,12,14-trien-11-olide was examined by using cancer cells (HaLa). […] Based on these findings, the protein generated from pre-mRNA can serve as the marker as well.
About 3×10^5 cells of HeLa cells were first seeded in a 24-well culture plate (bottom area: 2 cm^2), and 18 hours later, the compound was added thereto at the indicated concentration, followed by additional 24-hour culturing. The cells were washed once with PBS(−), and then were lysed by treating with 0.2 ml of M-PER reagent (PIERCE) for 30 minutes. The collected lysate was filtered with a 0.45 μm filter to remove insoluble matters and then combined with an equal amount of 2×SDS-PAGE sample solution. The mixture was heated to be denatured at 95° C. for five minutes to yield a sample to be analyzed.
The analysis sample (15 μl each) was separated with 5-20% SDS-PAGE and transferred onto a PVDF membrane (Hybond-P: GE-Amersham). […]

## CCC(O)C(C)C1OC1CC(C)(O)/C=C/C=C(\C)C1OC(=O)CC(O)CCC(C)(O)C(OC(=O)N2CCN(C3CCCCCC3)CC2)/C=C/C1C (stereo not shown) [E7107, (8E,12E,14E)-7-((4-cycloheptylpiperazin-1-yl)carbonyl)oxy-3,6,16,21-tetrahydroxy-6,10,12,16,20-pentamethyl-18,19-epoxytricosa-8,12,14-trien-11-olide]
  SMN bands in Western blot: multiple bands with a molecular weight of less than 35 kDa were confirmed
